# Earlier results as cited in patent US8377956B2, “Use of (3R)-4-{[(1S)-2-methyl-1-(2-methylpropanoyloxy)propoxy]carbonylamino}-3-(4-chlorophenyl) butanoic acid for treating urinary incontinence” (XenoPort, Inc., priority 2010, dated 2013).
# Tested on: patients with unstable bladder syndrome
# Details: 5 mg four times per day
smiles,measurement,value
"NCC(CC(=O)O)c1ccc(Cl)cc1 (racemic) [baclofen, (±)-4-Amino-3-(4-chlorophenyl)butanoic acid]",diurnal and nocturnal frequency of micturition,significantly improve
same,severity of incontinence,significantly improve
